pEC50: −log10 of the molar value.
What was measured:
Test in all cases: Screening test 2: doxorubicin cytotoxicity, neutral red cell viability
Format in all cases: cell-based
[1] = test system: A375 cells; conditions: 24 hours; for increase of cell mortality induced by dxr (dxr cytotoxicity enhancement): A375, paniceins 10 μM, dxr 1.5 μM
Experimental: (§1) Cells were grown in 96 well plates in complete DMEM medium to achieve 60% to 70% confluence. Medium was then removed and replaced with 100 μL/well of complete DMEM medium containing paniceins at 10 μM (or at increasing concentrations for EC50 measurement) or DMSO as control. After 2 hours, 100 μL of complete DMEM medium containing doxorubicin was added in half wells to obtain the final concentration of 2 μM for MDA-MB-435 and MeWo, and 1.5 μM for A375. The cell viability was measured after 24 hours. Effect of compounds P2, P3, P4 and P5 on cell viability, and dose-response for compound P5 are shown for MDA-MB-435 (A), MeWo (B) and A375 (C). D. Enhancement of dxr cytotoxicity by paniceins is represented. The means (+/−sem) of at least three independent experiments are reported.
(§2) Melanoma cells MDA-MB-435, Mewo and A375 were seeded on 96-well plates and grown 48 hours in complete DMEM medium to achieve 60% to 70% confluence. Medium was then removed and replaced with 100 μL/well of complete DMEM medium containing the compounds of interest at defined concentration or DMSO as control. After 2 hours, 100 µL of complete DMEM medium containing doxorubicin was added in half wells to obtain 2 μM doxorubicin. Plates were incubated at 37° C. in a 5% CO2/95% air water-saturated atmosphere. After 24 hours, microplates were incubated 3 hours at 37° C. with 100 μL/wells neutral red (NR) solution (50 μg/mL in DMEM). After a rapid wash with PBS at 4° C., microplates were gently tapped several times on absorbent paper. Cells were solubilized with 100 μL of a solution containing 1% acetic acid, 49% H2O, 50% ethanol by vortexing 3 minutes at 700 rpm and the absorbance at 600 nm was measured. EC50 were calculated using Regressi software.

[2] = test system: MDA-MB-435 cells; conditions: 24 hours; for increase of cell mortality induced by dxr (dxr cytotoxicity enhancement): MDA-MB-435, paniceins 10 μM, dxr 2 μM
Experimental: as §1, §2

[3] = test system: MeWo cells; conditions: dxr 2 μM, 24 hours; for increase of cell mortality induced by dxr (dxr cytotoxicity enhancement): paniceins 10 μM
Experimental: as §1, §2

Compound | increase of cell mortality induced by dxr (dxr cytotoxicity enhancement) [1] | increase of cell mortality induced by dxr (dxr cytotoxicity enhancement) [2] | increase of cell mortality induced by dxr (dxr cytotoxicity enhancement) [3] | pEC50 ([1]; Homo sapiens, A-375, A375, dxr 1.5 μM, read-out: concentration inducing 50% of dxr cytotoxicity enhancement (EC50)) | pEC50 ([2]; Homo sapiens, MDA-MB-435, dxr 2 μM, read-out: concentration inducing 50% of dxr cytotoxicity enhancement (EC50)) | pEC50 ([3]; Homo sapiens, read-out: concentration inducing 50% of dxr cytotoxicity enhancement (EC50))
C/C(=C\Cc1cc(O)ccc1O)CCc1c(C)c(O)c(O)c(C=O)c1C [P2, Panicein C] | no effect | about 2 times | about 2 times |  |  | 
C/C(=C\Cc1cc(O)ccc1O)CCc1c(C)cc(O)c(C=O)c1C [P3, Panicein B3] | no effect | about 2 times | about 2 times |  |  | 
Cc1cc(O)c(C=O)c(C)c1CCC1(C)C=Cc2cc(O)ccc2O1 (stereo not shown) [P4, Panicein B2] | no effect | about 2 times | about 2 times |  |  | 
COc1cc(C)c(CC/C(C)=C/Cc2cc(O)ccc2O)c(C)c1C [P5, Panicein A hydroquinone] | about 2 times |  |  | 4.65 | 5.03 | 5.30

From US10376476B2, “Panicein compounds, compositions and uses thereof” (CENTRE NATIONAL DE LA RECHERCHE SCIENTIFIQUE, priority 2014, dated 2019)
